{"source": "the SangsterLogP compilation", "key": {"[1]": {"assay": "method code SF-AS, from DOI: 10.1080/00021369.1974.10861343"}, "[2]": {"assay": "method code SF-AS, from PMID: 8197227", "conditions": "pH 7.4"}, "[3]": {"assay": "method code SF-AS, from DOI: 10.1016/0378-5173(90)90042-3"}, "[4]": {"assay": "method code SF-AS, from DOI: 10.1002/jps.2600710122"}, "[5]": {"assay": "method code SF-AS, from DOI: 10.1021/jf60177a051"}, "[6]": {"assay": "not given", "remark": "listed apart in the source"}, "[7]": {"assay": "from Pratesi, P.; Villa, L.; Ferri, V.; DeMicheli, C.; Grana, E.; Grieco, C.; Silipo, C.; Vittoria, A. (1979). On the additive-constitutive properties of substituent hydrophobic parameters in a set of …"}, "[8]": {"assay": "method code SF-AS, from DOI: 10.1021/bi00730a008, PMID: 4688860"}, "[9]": {"assay": "method code SF-AS, from DOI: 10.1111/j.1476-5381.1975.tb07619.x, PMID: 1182339", "conditions": "pH 10.0"}, "[10]": {"assay": "method code SF-C, from DOI: 10.1038/194178b0"}, "[11]": {"assay": "method code SF-HPLC, from DOI: 10.1002/jps.2600831027, PMID: 7884677", "conditions": "pH 2.0"}, "[12]": {"assay": "method code SF-AS, from DOI: 10.1021/jm00234a001, PMID: 1003419"}, "[13]": {"assay": "not given", "remark": "listed apart in the source"}, "[14]": {"assay": "not given", "remark": "listed apart in the source"}, "[15]": {"assay": "method code SF-HPLC, from DOI: 10.1007/s00216-006-0868-5, PMID: 17082876"}, "[16]": {"assay": "method code SF-AS, from M. Kuchar, J. Tomkova, V. Rejholec, & O. Roubinek. (1992). Some problems of the chromatographic evaluation of lipophicity. In Kuchar, M. (Ed.) QSAR in Design of Bioactive Compounds (pp. 65-81). Prous …", "conditions": "pH 3.4"}, "[17]": {"assay": "not given", "remark": "listed apart in the source"}, "[18]": {"assay": "method code SF-AS, from DOI: 10.1093/chemse/13.4.619", "conditions": "pH 7.2"}, "[19]": {"assay": "method code SF, from DOI: 10.1016/s0968-0896(00)00025-0, PMID: 10882003"}, "[20]": {"assay": "method code SF-AS, from DOI: 10.1021/jm00291a017, PMID: 5140011"}, "[21]": {"assay": "method code SF-HPLC, from DOI: 10.1016/0378-5173(87)90096-2", "conditions": "pH 8.0"}, "[22]": {"assay": "not given", "remark": "listed apart in the source"}, "[23]": {"assay": "method code SF-AS, from DOI: 10.1002/ps.2780370107", "conditions": "pH 0.0"}}, "data": [{"smiles": "CCOC(=O)C=COc1ccccc1", "values": [{"measurement": "logP", "setting": "[1]", "value": 3.18}]}, {"smiles": "NC(=S)NNC(=O)c1ccc2c(c1)OCO2", "values": [{"measurement": "logD", "setting": "[2]", "value": 0.21}]}, {"smiles": "COc1cccc(O)c1", "values": [{"measurement": "logP", "value": 1.52}]}, {"smiles": "CC(C)CCOC(=O)c1cc(=O)[nH]c(=O)[nH]1", "values": [{"measurement": "logP", "setting": "[3]", "value": 1.48}]}, {"smiles": "CCCOC(=O)C=COc1ccccc1", "values": [{"measurement": "logP", "setting": "[1]", "value": 3.72}]}, {"smiles": "O=C(Nc1n[nH]c(NC(=O)C(F)(F)F)n1)C(F)(F)F", "values": [{"measurement": "logP", "setting": "[4]", "value": 0.62}]}, {"smiles": "CC1=C(C(=O)O)SCCO1", "values": [{"measurement": "logP", "setting": "[5]", "value": 0.04}]}, {"smiles": "O=C(O)COc1ccc(Cl)cc1Cl", "values": [{"measurement": "logP", "setting": "[6]", "value": 2.71}]}, {"smiles": "O=S(=O)(O)c1ccc2ccccc2c1", "values": [{"measurement": "logP", "setting": "[7]", "value": 1.07}]}, {"smiles": "C(=NNc1nccs1)c1ccc2c(c1)OCO2", "values": [{"measurement": "logD", "setting": "[2]", "value": 1.5}]}, {"smiles": "Cc1csc(NNC(=O)c2ccc3c(c2)OCO3)n1", "values": [{"measurement": "logD", "setting": "[2]", "value": 1.41}]}, {"smiles": "Cc1ccc(NC=O)cc1", "values": [{"measurement": "logP", "setting": "[8]", "value": 1.61}]}, {"smiles": "COc1cc(NC(=O)NC(=N)N)ccc1C#N", "values": [{"measurement": "logD", "setting": "[9]", "value": 1.28}]}, {"smiles": "CCC(=O)Nc1n[nH]c(NC(=O)CC)n1", "values": [{"measurement": "logP", "setting": "[4]", "value": -0.07}]}, {"smiles": "Cc1cccc(OCC(=O)O)c1", "values": [{"measurement": "logP", "setting": "[10]", "value": 1.88}]}, {"smiles": "CCCCCOC(=O)c1cc(=O)[nH]c(=O)[nH]1", "values": [{"measurement": "logP", "setting": "[3]", "value": 1.62}]}, {"smiles": "COCc1ccc(C(=O)O)cc1", "values": [{"measurement": "logD", "setting": "[11]", "value": 1.76}]}, {"smiles": "CNC(=O)c1c(I)c(NC(C)=O)c(I)c(O[C@@H]2O[C@H](CO)[C@@H](O)[C@H](O)[C@H]2O)c1I", "values": [{"measurement": "logP", "setting": "[12]", "value": -1.49}]}, {"smiles": "O=C1OCc2c(Cl)c(Cl)c(Cl)c(Cl)c21", "values": [{"measurement": "logP", "setting": "[13]", "value": 3.22}]}, {"smiles": "O=C(O)COC(=O)Oc1ccccc1", "values": [{"measurement": "logP", "setting": "[14]", "value": 1.72}]}, {"smiles": "Oc1c(I)cc(I)c(O)c1I", "values": [{"measurement": "logP", "setting": "[12]", "value": 1.68}]}, {"smiles": "O=C(O)CCCCCCCOC(=O)Oc1ccccc1", "values": [{"measurement": "logP", "setting": "[14]", "value": 3.39}]}, {"smiles": "O=C1C(Cl)=C(Cl)C(=O)C(Cl)=C1Cl", "values": [{"measurement": "logP", "setting": "[15]", "value": 2.19}]}, {"smiles": "CNS(=O)(=O)c1ccccc1", "values": [{"measurement": "logP", "setting": "[7]", "value": 0.92}]}, {"smiles": "CC(=O)Nc1c(I)c(C(=O)N[C@H]2C(O)O[C@H](CO)[C@@H](O)[C@@H]2O)c(I)c(N(C)C(C)=O)c1I", "note": "(some centres not stated)", "values": [{"measurement": "logP", "setting": "[12]", "value": -1.89}]}, {"smiles": "O=C(O)COc1cccc(C(F)(F)F)c1", "values": [{"measurement": "logP", "setting": "[10]", "value": 2.52}]}, {"smiles": "C=Cc1ccccc1C=C", "values": [{"measurement": "logP", "setting": "[15]", "value": 3.49}]}, {"smiles": "O=C(Nc1ccccc1)C(=O)Nc1ccccc1", "values": [{"measurement": "logP", "setting": "[15]", "value": 2}]}, {"smiles": "O=C(O)CCc1ccc(OCc2ccccc2)c(Cl)c1", "values": [{"measurement": "logD", "setting": "[16]", "value": 3.89}]}, {"smiles": "Cc1ccc(S(=O)(=O)Cl)cc1", "values": [{"measurement": "logP", "setting": "[15]", "value": 3.25}]}, {"smiles": "COC(=O)c1cc(=O)[nH]c(=O)[nH]1", "values": [{"measurement": "logP", "setting": "[3]", "value": 0.63}]}, {"smiles": "CNc1ccccc1", "values": [{"measurement": "logP", "setting": "[17]", "value": 1.69}]}, {"smiles": "CC(=O)c1ccncc1", "values": [{"measurement": "logD", "setting": "[18]", "value": 0.4}]}, {"smiles": "O=C(O)c1ccc(CCl)cc1", "values": [{"measurement": "logD", "setting": "[11]", "value": 2.12}]}, {"smiles": "Cc1cccc(C)c1O", "values": [{"measurement": "logP", "value": 2.38}]}, {"smiles": "CC1=C(C(=O)Nc2ccccc2)S(=O)CCO1", "note": "(configuration not stated)", "values": [{"measurement": "logP", "setting": "[5]", "value": 0.64}]}, {"smiles": "O=C(O)c1ccccc1C(=O)O", "values": [{"measurement": "logP", "setting": "[6]", "value": 0.87}]}, {"smiles": "O=C(O)/C=C/Oc1ccccc1", "values": [{"measurement": "logD", "setting": "[1]; pH 3.0", "value": 2.27}]}, {"smiles": "CC(=O)c1cccc(OCC(=O)O)c1", "values": [{"measurement": "logP", "setting": "[10]", "value": 1.34}]}, {"smiles": "O=c1cccc(Cl)[nH]1", "values": [{"measurement": "logD", "setting": "[19]; pH 7.4", "value": 0.78}]}, {"smiles": "S=C1CCCCCCN1", "values": [{"measurement": "logP", "setting": "[20]", "value": 1}]}, {"smiles": "NC(=O)Cc1ccccn1", "values": [{"measurement": "logD", "setting": "[21]", "value": -0.64}]}, {"smiles": "N=C(N)NC(=O)Nc1ccc(Cl)c(Cl)c1", "values": [{"measurement": "logD", "setting": "[9]", "value": 2.39}]}, {"smiles": "CC[C@H]1CCC[C@H](O[C@H]2CC[C@H](N(C)C)[C@@H](C)O2)[C@@H](C)C(=O)C2=C[C@@H]3[C@@H](C=C(C)[C@@H]4C[C@@H](O[C@@H]5O[C@@H](C)[C@H](OC)[C@@H](OC)[C@H]5OC)C[C@@H]34)[C@@H]2CC(=O)O1", "values": [{"measurement": "logP", "setting": "[6]", "value": 4.92}]}, {"smiles": "c1ccc(Cc2ccncc2)cc1", "values": [{"measurement": "logD", "setting": "[18]", "value": 2.62}]}, {"smiles": "c1cc2cccc3c4cccc5cccc(c(c1)c23)c54", "values": [{"measurement": "logP", "setting": "[22]", "value": 6.53}]}, {"smiles": "O=C(Nc1n[nH]c(NC(=O)c2ccc([N+](=O)[O-])cc2)n1)c1ccc([N+](=O)[O-])cc1", "values": [{"measurement": "logP", "setting": "[4]", "value": 0.55}]}, {"smiles": "Cc1cccc(=O)[nH]1", "values": [{"measurement": "logP", "setting": "[19]", "value": -0.04}]}, {"smiles": "CCOP(=O)(O)Cc1ccc(-c2ccccc2)cc1", "values": [{"measurement": "logD", "setting": "[23]", "value": 2.37}]}, {"smiles": "CC(=O)Nc1ccccc1Cl", "values": [{"measurement": "logP", "setting": "[17]", "value": 1.35}]}, {"smiles": "CCOC(=O)c1cc(=O)[nH]c(=O)[nH]1", "values": [{"measurement": "logP", "setting": "[3]", "value": 0.68}]}, {"smiles": "COc1ccc(NC=O)cc1", "values": [{"measurement": "logP", "setting": "[8]", "value": 1.03}]}]}
